Measured values taken from paper PMC11822212, “High-throughput screening identifies Aurora kinase B as a critical therapeutic target for Merkel cell carcinoma” (Nature Communications, 2025).
Several values for one entry are separate records, joined by “and”; a condition that tells them apart may be missing. Equal entries are not always repeated. Where two headings read alike, the source gives them in different places.

What was measured:
Test in all cases: qHTS cell viability (CellTiter-Glo, 72 h; primary and follow-up small molecule screen)
Assay type in all cases: cell-based, human
MKL-2 cells (VP-MCC) = tested on: MKL-2 cells (VP-MCC)
MCC13 cells (VN-MCC) = tested on: MCC13 cells (VN-MCC)
MCC26 cells (VN-MCC) = tested on: MCC26 cells (VN-MCC)
MKL-1 cells (VP-MCC) = tested on: MKL-1 cells (VP-MCC)
UISO cells (VN-MCC) = tested on: UISO cells (VN-MCC)
WAGA cells (VP-MCC) = tested on: WAGA cells (VP-MCC)
[1] = follow-up screen, MKL-2, replicate 1
[2] = follow-up screen, MKL-2, replicate 2
[3] = follow-up screen, MKL-2, replicate 3
[4] = follow-up screen, MCC13, replicate 1
[5] = follow-up screen, MCC13, replicate 2
[6] = follow-up screen, MCC13, replicate 3
[7] = follow-up screen, MCC26, replicate 1
[8] = follow-up screen, MCC26, replicate 2
[9] = follow-up screen, MCC26, replicate 3
[10] = follow-up screen, MKL-1, replicate 1
[11] = follow-up screen, MKL-1, replicate 2
[12] = follow-up screen, MKL-1, replicate 3
[13] = follow-up screen, UISO, replicate 1
[14] = follow-up screen, UISO, replicate 2
[15] = follow-up screen, UISO, replicate 3
[16] = follow-up screen, WAGA, replicate 1
[17] = follow-up screen, WAGA, replicate 2
[18] = follow-up screen, WAGA, replicate 3

Structure (SMILES) | Area under the dose-response curve (AUC) MKL-2 Replicate 1 (MKL-2 cells (VP-MCC); [1]) | Area under the dose-response curve (AUC) MKL-2 Replicate 2 (MKL-2 cells (VP-MCC); [2]) | Area under the dose-response curve (AUC) MKL-2 Replicate 3 (MKL-2 cells (VP-MCC); [3]) | Area under the dose-response curve (AUC) MCC13 Replicate 1 (MCC13 cells (VN-MCC); [4]) | Area under the dose-response curve (AUC) MCC13 Replicate 2 (MCC13 cells (VN-MCC); [5]) | Area under the dose-response curve (AUC) MCC13 Replicate 3 (MCC13 cells (VN-MCC); [6]) | Area under the dose-response curve (AUC) MCC26 Replicate 1 (MCC26 cells (VN-MCC); [7]) | Area under the dose-response curve (AUC) MCC26 Replicate 2 (MCC26 cells (VN-MCC); [8]) | Area under the dose-response curve (AUC) MCC26 Replicate 3 (MCC26 cells (VN-MCC); [9]) | Area under the dose-response curve (AUC) MKL-1 Replicate 1 (MKL-1 cells (VP-MCC); [10]) | Area under the dose-response curve (AUC) MKL-1 Replicate 2 (MKL-1 cells (VP-MCC); [11]) | Area under the dose-response curve (AUC) MKL-1 Replicate 3 (MKL-1 cells (VP-MCC); [12]) | Area under the dose-response curve (AUC) UISO Replicate 1 (UISO cells (VN-MCC); [13]) | Area under the dose-response curve (AUC) UISO Replicate 2 (UISO cells (VN-MCC); [14]) | Area under the dose-response curve (AUC) UISO Replicate 3 (UISO cells (VN-MCC); [15]) | Area under the dose-response curve (AUC) WAGA Replicate 1 (WAGA cells (VP-MCC); [16]) | Area under the dose-response curve (AUC) WAGA Replicate 2 (WAGA cells (VP-MCC); [17]) | Area under the dose-response curve (AUC) WAGA Replicate 3 (WAGA cells (VP-MCC); [18]) | also measured
CO[C@@H]1C[C@@H](C[C@H]2CC[C@H](C)[C@H]([C@@H](C)C(=O)[O-])O2)O[C@]2(O[C@](C)([C@H]3CC[C@@](C)([C@@H]4O[C@@H]([C@H]5O[C@@](O)(CO)[C@H](C)C[C@@H]5C)C[C@@H]4C)O3)C[C@H]2C)[C@@H]1C.[Na+] [Nigericin sodium salt] |  |  |  |  |  |  |  |  |  |  |  |  |  |  |  |  |  |  | Area under the dose-response curve (AUC) MKL-2 Replicate 1 (MKL-2 cells (VP-MCC)): 228.1; Area under the dose-response curve (AUC) MKL-2 Replicate 2 (MKL-2 cells (VP-MCC)): 251.1; Area under the dose-response curve (AUC) MKL-2 Replicate 3 (MKL-2 cells (VP-MCC)): 280.4; Area under the dose-response curve (AUC) MCC13 Replicate 1 (MCC13 cells (VN-MCC)): 420.5; Area under the dose-response curve (AUC) MCC13 Replicate 2 (MCC13 cells (VN-MCC)): 422.2; Area under the dose-response curve (AUC) MCC13 Replicate 3 (MCC13 cells (VN-MCC)): 367.3; Area under the dose-response curve (AUC) MCC26 Replicate 1 (MCC26 cells (VN-MCC)): 423.1; Area under the dose-response curve (AUC) MCC26 Replicate 2 (MCC26 cells (VN-MCC)): 378.2; Area under the dose-response curve (AUC) MCC26 Replicate 3 (MCC26 cells (VN-MCC)): 418.9; Area under the dose-response curve (AUC) MKL-1 Replicate 1 (MKL-1 cells (VP-MCC)): 303.1; Area under the dose-response curve (AUC) MKL-1 Replicate 2 (MKL-1 cells (VP-MCC)): 277.9; Area under the dose-response curve (AUC) MKL-1 Replicate 3 (MKL-1 cells (VP-MCC)): 285.1; Area under the dose-response curve (AUC) UISO Replicate 1 (UISO cells (VN-MCC)): 277.0; Area under the dose-response curve (AUC) UISO Replicate 2 (UISO cells (VN-MCC)): 262.8; Area under the dose-response curve (AUC) UISO Replicate 3 (UISO cells (VN-MCC)): 250.0; Area under the dose-response curve (AUC) WAGA Replicate 1 (WAGA cells (VP-MCC)): 344.8; Area under the dose-response curve (AUC) WAGA Replicate 2 (WAGA cells (VP-MCC)): 317.4; Area under the dose-response curve (AUC) WAGA Replicate 3 (WAGA cells (VP-MCC)): 302.7
CCCCCCCCC(=O)NCc1ccc(O)c(OC)c1 [Nonivamide] |  |  |  |  |  |  |  |  |  |  |  |  |  |  |  |  |  |  | Area under the dose-response curve (AUC) MKL-2 Replicate 1 (MKL-2 cells (VP-MCC)): 520.2; Area under the dose-response curve (AUC) MKL-2 Replicate 2 (MKL-2 cells (VP-MCC)): 501.6; Area under the dose-response curve (AUC) MKL-2 Replicate 3 (MKL-2 cells (VP-MCC)): 494.8; Area under the dose-response curve (AUC) MCC13 Replicate 1 (MCC13 cells (VN-MCC)): 513.1; Area under the dose-response curve (AUC) MCC13 Replicate 2 (MCC13 cells (VN-MCC)): 478.1; Area under the dose-response curve (AUC) MCC13 Replicate 3 (MCC13 cells (VN-MCC)): 523.7; Area under the dose-response curve (AUC) MCC26 Replicate 1 (MCC26 cells (VN-MCC)): 453.4; Area under the dose-response curve (AUC) MCC26 Replicate 2 (MCC26 cells (VN-MCC)): 445.4; Area under the dose-response curve (AUC) MCC26 Replicate 3 (MCC26 cells (VN-MCC)): 466.4; Area under the dose-response curve (AUC) MKL-1 Replicate 1 (MKL-1 cells (VP-MCC)): 491.5; Area under the dose-response curve (AUC) MKL-1 Replicate 2 (MKL-1 cells (VP-MCC)): 481.8; Area under the dose-response curve (AUC) MKL-1 Replicate 3 (MKL-1 cells (VP-MCC)): 491.3; Area under the dose-response curve (AUC) UISO Replicate 1 (UISO cells (VN-MCC)): 479.2; Area under the dose-response curve (AUC) UISO Replicate 2 (UISO cells (VN-MCC)): 501.4; Area under the dose-response curve (AUC) UISO Replicate 3 (UISO cells (VN-MCC)): 453.6; Area under the dose-response curve (AUC) WAGA Replicate 1 (WAGA cells (VP-MCC)): 544.9; Area under the dose-response curve (AUC) WAGA Replicate 2 (WAGA cells (VP-MCC)): 499.1; Area under the dose-response curve (AUC) WAGA Replicate 3 (WAGA cells (VP-MCC)): 488.2
Fc1ccc2[nH]ccc2c1-c1nc(N2CCOCC2)c2sc(CN3CCN(CC4CC4)CC3)cc2n1 [PI-3065] |  |  |  |  |  |  |  |  |  |  |  |  |  |  |  |  |  |  | Area under the dose-response curve (AUC) (MKL-2 cells (VP-MCC)): 468.3 and 439.3 and 471.2; Area under the dose-response curve (AUC) (MCC13 cells (VN-MCC)): 491.4 and 471.7 and 470.9; Area under the dose-response curve (AUC) (MCC26 cells (VN-MCC)): 439.2 and 434.6 and 464.1; Area under the dose-response curve (AUC) (MKL-1 cells (VP-MCC)): 492.3 and 479.8 and 465.2; Area under the dose-response curve (AUC) (UISO cells (VN-MCC)): 477.0 and 474.8 and 437.8; Area under the dose-response curve (AUC) (WAGA cells (VP-MCC)): 514.3 and 478.8 and 484.1
C[C@]12CCC(=NOCCN)C[C@@H]1C(=O)C[C@@H]1[C@@H]2CC[C@]2(C)C(=O)CC[C@@H]12 [PST-2744 (Istaroxime)] |  |  |  |  |  |  |  |  |  |  |  |  |  |  |  |  |  |  | Area under the dose-response curve (AUC) (MKL-2 cells (VP-MCC)): 441.0 and 431.1 and 445.6; Area under the dose-response curve (AUC) (MCC13 cells (VN-MCC)): 404.5 and 430.7 and 432.5; Area under the dose-response curve (AUC) (MCC26 cells (VN-MCC)): 394.3 and 428.5 and 414.9; Area under the dose-response curve (AUC) (MKL-1 cells (VP-MCC)): 437.3 and 438.4 and 450.7; Area under the dose-response curve (AUC) (UISO cells (VN-MCC)): 410.4 and 435.6 and 412.5; Area under the dose-response curve (AUC) (WAGA cells (VP-MCC)): 454.8 and 457.0 and 435.6
Cc1cc(Nc2ncc3c(n2)N(C)C(=O)N(c2cc(NC(=O)c4cccc(C(F)(F)F)c4)ccc2C)C3)n(C)n1 [Pluripotin] | 435.4 | 458.3 | 471.4 | 368.1 | 352.7 | 330.6 | 306.5 | 289.3 | 278.9 | 453.5 | 477.1 | 466.2 | 341.8 | 376.4 | 360.3 | 419.3 | 439.3 | 440.2 | 
CO[C@H]1/C=C/O[C@@]2(C)Oc3c(C)c(O)c4c(O)c(c(/C=N/N5CCN(C6CCCC6)CC5)c(O)c4c3C2=O)NC(=O)/C(C)=C\C=C\[C@H](C)[C@H](O)[C@@H](C)[C@@H](O)[C@@H](C)[C@H](OC(C)=O)[C@@H]1C [Rifapentine] | 477.3 | 488.3 | 494.1 | 505.1 | 494.8 | 490.8 | 454.9 | 422.8 | 488.5 | 466.1 | 446.1 | 500.1 | 475.3 | 482.1 | 453.0 | 525.4 | 514.7 | 508.3 | 
CCc1c2c(nc3ccc(O)cc13)-c1cc3c(c(=O)n1C2)COC(=O)[C@]3(O)CC [SN-38] | 131.4 | 119.7 | 221.9 | 218.6 | 222.5 | 261.5 | 201.3 | 194.5 | 189.1 | 135.7 | 150.7 | 162.0 | 127.3 | 148.1 | 144.2 | 143.8 | 150.1 | 140.2 | 
